Where a name gives a salt, the structure may show the parent alone. Read-outs that look alike come from different tables or passages of the source.
How the values were obtained:
Swiss Webster mice = test: Tail immersion assay (agonism, and antagonism of morphine); format: in vivo, mouse; details: 95% confidence level in brackets
MOR [1] = biological target: T1, MOR (Mus musculus, UniProt P42866); test: Competition radioligand binding, MOR ([3H]naloxone); parameters: expressed in transfected cells; host or cells: CHO; details: CHO cell membranes
T1 sequence (P42866 whole entry): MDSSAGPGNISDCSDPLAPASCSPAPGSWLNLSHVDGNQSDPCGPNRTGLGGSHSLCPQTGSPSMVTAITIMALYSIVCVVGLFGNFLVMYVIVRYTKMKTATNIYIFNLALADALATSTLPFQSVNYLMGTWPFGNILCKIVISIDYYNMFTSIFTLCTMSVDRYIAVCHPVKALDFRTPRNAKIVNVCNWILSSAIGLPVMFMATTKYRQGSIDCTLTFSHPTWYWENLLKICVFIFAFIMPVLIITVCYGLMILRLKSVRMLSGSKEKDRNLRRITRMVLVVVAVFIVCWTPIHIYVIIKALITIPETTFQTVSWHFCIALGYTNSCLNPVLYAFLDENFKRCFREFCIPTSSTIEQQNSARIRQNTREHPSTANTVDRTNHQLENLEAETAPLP

KOR [2] = biological target: T2, KOR (Homo sapiens, UniProt P41145); test: biochemical; format: binding
T2 construct: expressed in transfected cells; host or cells: CHO
T2 sequence (P41145 whole entry): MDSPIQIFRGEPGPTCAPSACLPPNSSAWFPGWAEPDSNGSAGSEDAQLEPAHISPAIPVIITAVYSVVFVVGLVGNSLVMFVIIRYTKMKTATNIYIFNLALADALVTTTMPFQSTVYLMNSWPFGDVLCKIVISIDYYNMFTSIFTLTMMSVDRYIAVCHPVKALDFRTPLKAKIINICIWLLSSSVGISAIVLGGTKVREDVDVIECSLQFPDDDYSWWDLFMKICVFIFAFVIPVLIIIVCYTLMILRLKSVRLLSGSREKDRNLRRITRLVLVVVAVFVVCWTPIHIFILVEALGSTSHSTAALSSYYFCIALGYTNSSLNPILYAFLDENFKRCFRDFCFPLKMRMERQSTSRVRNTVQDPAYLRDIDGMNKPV

DOR [3] = biological target: T3, DOR (Homo sapiens, UniProt P41143); test: biochemical; format: binding; parameters: expressed in transfected cells; host or cells: CHO
T3 sequence (P41143 whole entry): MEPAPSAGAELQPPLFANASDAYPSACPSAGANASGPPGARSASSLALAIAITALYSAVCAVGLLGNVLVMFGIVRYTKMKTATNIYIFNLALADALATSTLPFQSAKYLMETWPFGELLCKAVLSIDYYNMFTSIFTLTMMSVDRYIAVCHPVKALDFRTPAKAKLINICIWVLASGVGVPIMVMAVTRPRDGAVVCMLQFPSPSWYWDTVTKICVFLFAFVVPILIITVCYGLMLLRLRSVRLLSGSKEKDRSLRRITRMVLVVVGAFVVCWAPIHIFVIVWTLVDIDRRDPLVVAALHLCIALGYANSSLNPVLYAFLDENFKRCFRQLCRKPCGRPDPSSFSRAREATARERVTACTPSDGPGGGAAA

MOR [4] = biological target: T1, MOR; details: for EC50: read-out: MOR 35S-GTP[γS] Binding EC50, MOR-CHO membranes
MOR [5] = biological target: T1, MOR; test: biochemical; details: read-out: MOR 35S-GTP[γS] Binding % Emax of DAMGO, relative to 3 μM DAMGO
MOR [6] = biological target: T1, MOR; test: Desensitization study: DAMGO-induced [35S]GTPγS binding after ligand pretreatment of mMOR-CHO cells; format: cell-based; parameters: expressed in transfected cells; host or cells: CHO; details: pretreated mMOR-CHO cells
MOR [7] = biological target: T1, MOR; details: 24 h pretreatment (DAMGO, morphine 5 μM; nalbuphine, naltrexone 1 μM); previously published; cited from earlier work
KOR [8] = biological target: T2, KOR; details: values from reference 44a/57a; cited from earlier work
MOR [9] = biological target: T1, MOR; parameters: expressed in transfected cells; host or cells: CHO; details: read-out: Ki MOR; [3H]naloxone; values from reference 44a/57a; cited from earlier work
MOR [10] = biological target: T1, MOR; details: values from reference 44a/57a, cited from earlier work
DOR [11] = biological target: T3, DOR; details: values from reference 44a/57a; cited from earlier work

C=CCN1CC[C@]23c4c5ccc(O)c4O[C@H]2C(=O)CC[C@@]3(O)[C@H]1C5 [naloxone, reference compound]
AD50 (antagonism of morphine antinociception) (Swiss Webster mice): 0.05 mg/kg

O=C(N[C@@H]1CCC2(O)C3Cc4ccc(O)c5c4[C@@]2(CCN3CC2CC2)[C@H]1O5)c1ccnc(Cl)c1 (some centres unmarked) (as salt: hydrochloride)
melting point: > 250 °C

17-Cyclopropylmetyl-3,14β-dihydroxy-4,5α-epoxy-6β-[(3′-carboxyl-4′-pyridyl) acetamido]morphinan [Compound 5]
Ki (MOR [1]): 0.76 ± 0.08 nM | Selectivity κ/μ (KOR [2]): 3.2 | Ki (KOR [2]; read-out: Ki KOR): 2.43 ± 0.19 nM | Selectivity δ/μ (DOR [3]): 73.2 | Ki (DOR [3]; read-out: Ki DOR): 55.6 ± 6.02 nM | EC50 (MOR [4]): 1.83 ± 0.18 nM | MOR 35S-GTP[γS] Binding % Emax of DAMGO (MOR [4]; relative to 3 μM DAMGO): 29.27 ± 1.42%

COc1cc(C(=O)N[C@@H]2CCC3(O)C4Cc5ccc(O)c6c5[C@@]3(CCN4CC3CC3)[C@H]2O6)ccn1 (some centres unmarked) (as salt: hydrochloride)
melting point: 244 to 248 °C (dec.)

O=C(N[C@@H]1CC[C@@]2(O)[C@H]3Cc4ccc(O)c5c4[C@@]2(CCN3CC2CC2)[C@H]1O5)c1ccncc1-c1ccccc1 [Compound 12]
Ki (MOR [1]): 0.63 ± 0.05 nM | Ki (KOR [2]): 3.42 ± 0.38 nM | Ki (DOR [3]): 44.8 ± 3.7 nM | EC50 (MOR [4]): 1.46 ± 0.18 nM | Emax (MOR [5]): 44.4 ± 3.12%

C[C@@H](NC(=O)[C@@H](N)Cc1ccc(O)cc1)C(=O)NCC(=O)N(C)[C@@H](Cc1ccccc1)C(=O)NCCO [DAMGO, reference compound]
Increase of DAMGO EC50 compared with vehicle treated group (MOR [6]): ~4 fold | Emax of DAMGO-stimulated [35S]GTPγS binding after pretreatment (net) (MOR [7]): 121.62 ± 13.78 fmol/mg

Cc1cnccc1C(=O)N[C@@H]1CC[C@@]2(O)[C@H]3Cc4ccc(O)c5c4[C@@]2(CCN3CC2CC2)[C@H]1O5 [NMP, N-((4R,4aS,7R,7aR,12bS)-3-(cyclopropylmethyl)-4a,9-dihydroxy-2,3,4,4a,5,6,7,7a-octahydro-1H-4,12-methanobenzofuro[3,2-e]isoquinolin-7-yl)-3-methylisonicotinamide]
Selectivity κ/μ (KOR [8]): 166 | Ki (MOR [9]): 0.58 ± 0.25 nM | EC50 (MOR [10]; read-out: MOR 35S-GTP[γS] Binding EC50): 1.52 ± 0.26 nM | MOR 35S-GTP[γS] Binding % Emax of DAMGO (MOR [10]): 30.63 ± 0.55% | Selectivity δ/μ (DOR [11]): 470

Cc1cc(C(=O)N[C@@H]2CCC3(O)C4Cc5ccc(O)c6c5[C@@]3(CCN4CC3CC3)[C@H]2O6)ccn1 (some centres unmarked) (as salt: hydrochloride)
melting point: 248 °C (dec.)

— patent US11014933B2 (priority 2018, dated 2021)
